Tests used:
Format in all cases: cell-based
neutrophils = experiment: Cell viability / cytotoxicity by propidium iodide exclusion assay; conditions: 10 μg/ml, drug alone, 1 h incubation
Procedure: FIG. 17. Effects of Fan, Tet or SPRST on cell viability. Cell viability was measured by a propidium iodide exclusion assay. After incubation of cells (2×10^6/ml) with SPRST or test drugs for 1 h, cell suspension was further incubated with propidium iodide (10 μg/ml) and fluorescein diacetate (100 ng/ml) at room temperature for 10 min. Cell suspension was analyzed immediately on a flow cytometer (FACSCalibur™; Becton Dickinson) by recording forward and light scatter, red (>630 nm) and green (520 nm) fluorescence. […] Cell viability (%) was calculated by the CellQuest® software (Becton Dickinson) on a Power Macintosh 7300/200 computer. […]
Estimation of cell viability. Cell viability was determined according to Ormerod's method (Ormerod, M. G., 2000. Further applications to cell biology. In: Ormerod, M. G (Ed.), Flow cytometry, Third edition. Oxford University Press, UK, pp. 249-250) after incubation of, cells (2×10^6/ml) with test drugs for 1 h in 5-ml polystyrene round-bottomed tube (FALCON, Becton Dicson). […] After incubation with test drugs, cells suspension were further incubated with propidium iodide and fluorescein diacetate at room temperature for 10 min and analyzed immediately on a flow cytometer (FACSCalibur™; Becton Dickinson) by recording forward and light scatter, red (>630 nm) and green (520 nm) fluorescence. […]

human neutrophils [1] = experiment: AlF4−-induced (direct G protein activation) [Ca2+]i increment; conditions: 500 ng/ml pretreatment, 2 hrs
Procedure: Effects of SPRST, Tet, or Fan on AlF4^−-induced changes in intracellular calcium concentration ([Ca^2+]i). Fura 2-AM or BCECF-AM labeled-neutrophils were pretreated with 5-10 μg/ml of SPRST or other chemicals at 37° C. for 10 min. For G-protein study, sample was pretreated with 500 ng/ml of pertussis toxin (PTX) at 37° C. for 2 hrs before the addition of AlF4^− (10 mM NaF plus 10 μM AlCl3), a direct G-protein activator. AlF4^−-induced changes in [Ca^2+]i were measured as described in Materials and Methods. […] Values are mean±S.E.M. (n=5). *P<0.05, as compared to samples receiving AlF4^− alone for [Ca^2+]i and neutrophil adhesion, respectively. […]
Where: K=224 nM (Fura-2 at 37° C.), Rmin=ratio value in minimal Ca^2+ conditions, Rmax=ratio value at a maximal Ca^2+ concentration, Sf380=380 nm reading in minimal Ca^2+ conditions (corrected for background), Sb380 =380 nm reading in maximal Ca^2+ conditions (corrected for background). Rmax and Sb380 were obtained at the end of a measurement by permeabilizing the cells with 0.2% digitonin, where Rmin and Sf380 were determined by adding 20 mM EGTA after digitonin lysis.

human neutrophils [2] = experiment: fMLP- or LTB4-induced intracellular calcium concentration ([Ca2+]i), fura-2; conditions: 500 ng/ml pretreatment, 2 hrs
Procedure: Neutrophils (2×10^6/ml) were preloaded with fura 2-AM (5 μM) at 37° C. for 45 min and washed twice with HBSS (calcium free). […] For G-protein study, sample was pretreated with 500 ng/ml of pertussis toxin (PTX) at 37° C. for 2 hrs. Samples were gentle mixed with a micromagnetic stirrer at 37° C. for 5 min before addition of 1 μM of fMLP. [Ca^2+]i was measured on a spectrofluorometer as described in Materials and Methods. Net increase in [Ca^2+]i was calculated by subtracting control values from respective experimental values (control [Ca^2+]i in resting cell was 108±16 nM).
Neutrophils (2×10^6/ml) were preloaded with fura 2-AM (5 μM) at 37° C. for 45 min and washed twice with HBSS (calcium free). […] For G-protein study, sample was pretreated with 500 ng/ml of pertussis toxin (PTX) at 37° C. for 2 hrs. […] [Ca^2+]i was measured on a spectrofluorometer as described in Materials and Methods. Net increase in [Ca^2+]i was calculated by subtracting control values from respective experimental values (control [Ca^2+]i in resting cell was 108±16 nM). […]
Where: K=224 nM (Fura-2 at 37° C.), Rmin=ratio value in minimal Ca^2+ conditions, Rmax=ratio value at a maximal Ca^2+ concentration, Sf380=380 nm reading in minimal Ca^2+ conditions (corrected for background), Sb380 =380 nm reading in maximal Ca^2+ conditions (corrected for background). […]

human neutrophils [3] = experiment: AlF4−-induced neutrophil firm adhesion; conditions: 500 ng/ml pretreatment, 2 hrs
Procedure: Effects of SPRST, Tet, or Fan on AlF4^−-induced changes in neutrophil adhesion. Fura 2-AM or BCECF-AM labeled-neutrophils were pretreated with 5-10 μg/ml of SPRST or other chemicals at 37° C. for 10 min. For G-protein study, sample was pretreated with 500 ng/ml of pertussis toxin (PTX) at 37° C. for 2 hrs before the addition of AlF4^− (10 mM NaF plus 10 μM AlCl3), a direct G-protein activator. AlF4^−-induced neutrophil adhesion were measured as described in Materials and Methods.
Measurement of Neutrophil Firm Adhesion. Adhesion of neutrophils to extracellular matrix was determined in 24-well tissue culture plates (FALCON®, NJ, USA) coated with fibrinogen as our previous study (Shen et al., 1999). Prior to the addition of neutrophils, the plates were incubated with 250 μl per well of human fibrinogen (50 pg/ml in PBS; Chemicon International, Inc., CA) for 2 hrs at 37° C. The wells were washed once with HBSS, blocked with 1% BSA (Sigma, USA) in HBSS for 1 hr at 37° C., and washed twice with HBSS containing 0.1% Tween-20 (Sigma, USA) and once with HBSS. […] Adherent neutrophils were then determined by measuring the fluorescence with a fluorescent plate reader (Cytofluor 2300, Millipore®) with excitation at 485 nm and emission at 530 nm. Data are expressed as fluorescence intensity.

COc1ccc2cc1Oc1ccc(cc1)C[C@H]1c3cc(c(OC)cc3CCN1C)Oc1c(O)c(OC)cc3c1[C@H](C2)N(C)CC3 [Fan, fangchinoline]
cytotoxic effect (dead cells) (neutrophils): 0.84±0.11%

COc1ccc2cc1Oc1ccc(cc1)C[C@H]1c3cc(c(OC)cc3CCN1C)Oc1c(OC)c(OC)cc3c1[C@H](C2)N(C)CC3 [Tet, tetrandrine]
cytotoxic effect (dead cells) (neutrophils): 1.24±0.17%

pertussis toxin [PTX]
AlF4−-induced [Ca2+]i increment (human neutrophils [1]): significantly inhibited | inhibition of fMLP- or LTB4-triggered rapid increase in [Ca2+]i (human neutrophils [2]): abolished | AlF4−-induced neutrophil firm adhesion (human neutrophils [3]): significantly inhibited

— patent publication US20040105907A1, “Anti-inflammatory effects of the partially purified extract of radix stephaniae tetrandrae” (priority 2002, published 2004)
